Assays:
Assay type in all cases: in vivo, human
[1] = Part II saline-volume-changed study, plasma pharmacokinetics; conditions: single-dose infusion of 240 mg pyragrel diluted in 250 ml saline, n=4
Protocol: (§1) Pyragrel administration regimens are as follows: In the single-escalating-dose study (Part I), a total of 52 subjects are enrolled to receive one of three treatments (pyragrel, ozagrel, or placebo, diluted in 500 Ml normal saline) as a 3-h i.v. infusion. Six dose levels of pyragrel (30, 60,120, 180, 240, 300 mg) were intravenously infused to healthy subjects. Of the 12 subjects each at the first three dose groups (30, 60, and 120 mg), 8 received pyragrel, 2 received ozagrel (80 mg), and 2 received placebo. Eight subjects were assigned as 4/2/2 for pyragrel, ozagrel, and placebo at the 180 mg level. Only four subjects were enrolled at the 240- and 300-mg group each; all received pyragrel. […] In the saline-volume-changed study (Part II), the safety and pharmacokinetics of pyragrel were assessed by decreasing the volume of dilution saline. Four subjects received a single 3 h infusion of pyragrel 240 mg diluted in 250 ml saline instead of the 500 ml used in Part I. Blood samples were collected at multiple time points before and after the initiation of the infusion in Part I and Part II; 15 blood samples were predetermined as follows: before drug administration (time 0), 0.5, 1, 2, 3 (4 samples collected during infusion), 3.25, 3.5, 4, 5, 7, 9, 11, 15, 24, and 48 h (10 samples collected post infusion) after the initiation of the infusion. In the multiple-dose study (Part III), 12 subjects received a single 3 h infusion of 180 mg pyragrel (diluted in 250 ml saline) on Day 1 and Day 6 and twice 3 h infusion of 180 mg pyragrel from Day 2 to 5; 14 blood samples were collected on Day 1 and Day 6 before drug administration (0 h), 0.5, 1, 2, 3, 3.25, 3.5, 4, 5, 7, 9, 11, 15, 24 h after the initiation of the infusion; moreover, 5 ml cubital vein blood was collected each time right before pyragrel infusion on Day 2 to Day 5. In the 3×3 crossover study (Part IV), 12 subjects were randomized to receive each of the three dosing groups (60, 120, or 240 mg) of pyragrel (diluted with 250 ml saline, 3 h infusion) per period, with a 7-day washout period between doses. Sixteen blood samples were collected as follows: before drug administration (0 h), 0.17, 0.35, 0.5, 1, 2, 3, 3.25, 3.5, 4, 5, 7, 9, 11, 15, and 24 h after the initiation of the infusion at each period. In the prolonged infusion study (Part V), four subjects received continuous 24 h infusion of pyragrel 360 mg (diluted in 600 ml saline); 19 blood samples were collected as follows: before drug administration (0 h), 0.25, 0.5, 1, 2, 4, 8, 12, 16, 20 (nine samples collected during administration), 24.25, 24.5, 25, 26, 28, 30, 32, 36, and 48 h after the initiation of the infusion (details shown in Figure 1 ). In all five cohorts, 5 ml of cubital vein blood was collected with a sodium heparin anticoagulant tube and centrifuged at 3000 r·min^-1. Each plasma sample was divided into two aliquots and stored at −20°C until further bioanalysis. […] Briefly, 10 µl of the extract drug from […] was injected onto a Zorbax EcLipse XDB C18 column (2.1 mm × 150 mm, 5 μm) (Agilent, USA) using isocratic elution with a mobile phase composed of methanol, water, and formic acid (65:35:0.1, v/v/v). Determination of the analytes was achieved by tandem-mass spectrometry with positive electrospray ionization.
(§2) Pharmacokinetic parameters were calculated using the noncompartmental model (NCA module), WinNonlin 6.1 (Pharsight Corporation, Mountain View, CA, USA). Statistical analysis was performed with SPSS 18. The actual dosing and sampling times were utilized in the analysis. Pharmacokinetic parameters were summarized by dose regimens using descriptive statistics, including n, mean, and the coefficient of variation (CV). For Tmax, only n, min, median, and max were reported.

[2] = Part I single-ascending-dose plasma pharmacokinetics (HPLC-MS/MS, noncompartmental); conditions: for Pharmacokinetic process over the dose range: 30–300 mg dose range
Protocol: as §1, §2

[3] = Part IV urinary excretion of pyragrel and four metabolites; conditions: for Total cumulative urine excreted amounts over 24 h: 12 subjects; for Accumulative urinary excretion rate: over 24 h; for Cumulative urinary drug recovery (normalized to pyragrel) within 24 h: n=12, Mean ± SD
Protocol: Urine samples were collected after the initiation of pyragrel infusion as follows in Part IV: 0–3 (3 h infusion period), 3–7, 7–11, 11–15, and 15–24 h after pyragrel administration during each period. […] Production of 11-dehydro-thrombxane B2 (11-D-HTXB2) in urine sample was detected by ELISA method.

[4] = Part I, single 3-h i.v. infusion of pyragrel 30 mg, plasma, n=8, mean ± SD
[5] = Part I, single 3-h i.v. infusion of pyragrel 60 mg, plasma, n=8, mean ± SD
[6] = Part I, single 3-h i.v. infusion of pyragrel 120 mg, plasma, n=8, mean ± SD
[7] = Part I, single 3-h i.v. infusion of pyragrel 180 mg, plasma, n=4, mean ± SD
[8] = Part I, single 3-h i.v. infusion of pyragrel 240 mg, plasma, n=4, mean ± SD
[9] = Part I, single 3-h i.v. infusion of pyragrel 300 mg, plasma, n=4, mean ± SD
[10] = single 3 h infusion of pyragrel 60 mg
[11] = single 3 h infusion of pyragrel 240 mg
[12] = Part I, metabolite in plasma after single 3 h i.v. infusion of pyragrel 30 mg, n=8, mean ± SD
[13] = Part I, metabolite in plasma after single 3 h i.v. infusion of pyragrel 60 mg, n=8, mean ± SD
[14] = Part I, metabolite in plasma after single 3 h i.v. infusion of pyragrel 120 mg, n=8, mean ± SD
[15] = Part I, metabolite in plasma after single 3 h i.v. infusion of pyragrel 180 mg, n=4, mean ± SD
[16] = Part I, metabolite in plasma after single 3 h i.v. infusion of pyragrel 240 mg, n=4, mean ± SD
[17] = Part I, metabolite in plasma after single 3 h i.v. infusion of pyragrel 300 mg, n=4, mean ± SD

COc1cc(C=CC(=O)[O-])ccc1OCc1nc(C)c(C)nc1C.[Na+] [Pyragrel, sodium pyragrel]
AUCINF [1]: 9638.78 ± 1487.08 ng·h/mL | AUClast [1]: 9600.11 ± 1446.10 ng·h/mL | Cl [1]: 25.38 ± 4.18 L/h | Cmax [1]: 3360.73 ± 622.63 ng/mL | MRTINF [1]: 1.02 ± 0.33 h | MRTlast [1]: 0.90 ± 0.16 h | Tmax [1]: 3.00 ± 0.00 h | Vz [1]: 221.12 ± 75.68 L | t1/2 [1]: 6.19 ± 2.63 h | λz [1]: 0.13 ± 0.04 h⁻¹ | Pharmacokinetic process over the dose range [2]: linear | Tmax ([2]; Part I, across all six dose groups (30-300 mg), 3 h infusion): about 3 h | Plasma concentration remaining, fraction of Cmax ([2]; Part I, at 4 h after initiation of the 3 h infusion): 1/20 | AUCINF [2, 4]: 1,051.0 ± 185.8 h*µg·L^-1 | AUClast [2, 4]: 1,047.5 ± 182.7 h*µg·L^-1 | Cl [2, 4]: 29.26 ± 4.69 L/h | Tmax [2, 4]: 2.75 ± 0.46 h | Vz [2, 4]: 96.16 ± 31.87 L | t1/2 [2, 4]: 2.39 ± 1.03 h | AUCINF [2, 5]: 2,009.4 ± 235.97 h*µg·L^-1 | AUClast [2, 5]: 2,003.7 ± 235.9 h*µg·L^-1 | Cl [2, 5]: 30.23 ± 3.58 L/h | Cmax [2, 5]: 711.8 ± 100.2 µg/L | Tmax [2, 5]: 2.88 ± 0.35 h | Vz [2, 5]: 203.0 ± 81.47 L | t1/2 [2, 5]: 4.62 ± 1.69 h | AUCINF [2, 6]: 4,300.5 ± 807.5 h*µg·L^-1 | AUClast [2, 6]: 4,287.2 ± 812.7 h*µg·L^-1 | Cl [2, 6]: 28.76 ± 5.26 L/h | Cmax [2, 6]: 1,435.6 ± 319.5 µg·L^-1 | Tmax [2, 6]: 2.88 ± 0.35 h | Vz [2, 6]: 278.0 ± 162.5 L | t1/2 [2, 6]: 6.64 ± 3.53 h | AUCINF [2, 7]: 7,390.5 ± 414.7 h*µg·L^-1 | AUClast [2, 7]: 7,376.5 ± 413.0 h*µg·L^-1 | Cl [2, 7]: 24.41 ± 1.41 L/h | Cmax [2, 7]: 2,622.5 ± 439.9 µg·L^-1 | Tmax [2, 7]: 3.00 ± 0.00 h | Vz [2, 7]: 334.4 ± 110.8 L | t1/2 [2, 7]: 9.64 ± 3.58 h | AUCINF [2, 8]: 9,224.3 ± 2,716.3 h*µg·L^-1 | AUClast [2, 8]: 9,194.7 ± 2,703.5 h*µg·L^-1 | Cl [2, 8]: 27.50 ± 6.80 L/h | Cmax [2, 8]: 3,144.2 ± 931.2 µg·L^-1 | Tmax [2, 8]: 2.75 ± 0.50 h | Vz [2, 8]: 573.6 ± 180.3 L | t1/2 [2, 8]: 14.24 ± 1.66 h | AUCINF [2, 9]: 9,315.3 ± 1,219.1 h*µg·L^-1 | AUClast [2, 9]: 9,301.4 ± 1,215.2 h*µg·L^-1 | Cl [2, 9]: 32.62 ± 4.29 L/h | Cmax [2, 9]: 3,011.7 ± 303.2 µg·L^-1 | Tmax [2, 9]: 2.25 ± 0.50 h | Vz [2, 9]: 454.6 ± 191.4 L | t1/2 [2, 9]: 9.88 ± 4.26 h | Urinary excretion, share of the total drug amount ([3]; Part IV, three dose groups, pyragrel plus metabolites): more than 70% | Total cumulative urine excreted amounts over 24 h [3, 10]: 44.80 mg | Accumulative urinary excretion rate [3, 10]: 74.67% | Total cumulative urine excreted amounts over 24 h ([3]; single 3 h infusion of pyragrel 120 mg): 85.07 mg | Total cumulative urine excreted amounts over 24 h [3, 11]: 175.83 mg | Accumulative urinary excretion rate [3, 11]: 73.26% | Cumulative urinary drug recovery (normalized to pyragrel) within 24 h ([3]; single dose of pyragrel 60 mg): 0.94 ± 0.30% | Cumulative urinary drug recovery (normalized to pyragrel) within 24 h ([3]; single dose of pyragrel 120 mg): 0.67 ± 0.14% | Cumulative urinary drug recovery (normalized to pyragrel) within 24 h ([3]; single dose of pyragrel 240 mg): 0.79 ± 0.28%

COc1cc(CCC(=O)O)ccc1OCc1nc(C)c(C)nc1C [BBS]
AUCINF [1]: 10315.00 ± 5472.87 ng·h/mL | AUClast [1]: 10085.90 ± 5357.26 ng·h/mL | Cl [1]: 36.06 ± 33.86 L/h | Cmax [1]: 2066.22 ± 977.65 ng/mL | MRTINF [1]: 4.13 ± 0.70 h | MRTlast [1]: 3.50 ± 0.74 h | Tmax [1]: 3.19 ± 0.24 h | Vz [1]: 372.66 ± 424.67 L | t1/2 [1]: 6.31 ± 1.38 h | λz [1]: 0.11 ± 0.03 h⁻¹ | Pharmacokinetic process over the dose range [2]: linear | AUCINF [2, 12]: 1016.64 ± 206.08 µg·h/L | AUClast [2, 12]: 1006.02 ± 209.31 µg·h/L | Cl [2, 12]: 30.60 ± 6.23 L/h | Cmax [2, 12]: 216.34 ± 48.23 µg/L | Tmax [2, 12]: 3.22 ± 0.36 h | Vz [2, 12]: 252.46 ± 113.75 L | t1/2 [2, 12]: 5.90 ± 2.84 h | AUCINF [2, 13]: 1815.58 ± 430.74 µg·h/L | AUClast [2, 13]: 1802.57 ± 421.18 µg·h/L | Cl [2, 13]: 34.63 ± 7.86 L/h | Cmax [2, 13]: 389.37 ± 90.87 µg/L | Tmax [2, 13]: 3.25 ± 0.13 h | Vz [2, 13]: 377.35 ± 68.16 L | t1/2 [2, 13]: 7.94 ± 2.48 h | AUCINF [2, 14]: 3566.52 ± 1518.01 µg·h/L | AUClast [2, 14]: 3553.23 ± 1512.83 µg·h/L | Cl [2, 14]: 37.91 ± 12.00 L/h | Cmax [2, 14]: 753.36 ± 287.7 µg/L | Tmax [2, 14]: 3.31 ± 0.18 h | Vz [2, 14]: 369.08 ± 168.49 L | t1/2 [2, 14]: 6.89 ± 2.29 h | AUCINF [2, 15]: 6563.91 ± 1179.31 µg·h/L | AUClast [2, 15]: 6542.7 ± 1174.8 µg·h/L | Cl [2, 15]: 28.22 ± 5.92 L/h | Cmax [2, 15]: 1490.69 ± 358.43 µg/L | Tmax [2, 15]: 3.31 ± 0.24 h | Vz [2, 15]: 301.81 ± 76.25 L | t1/2 [2, 15]: 7.41 ± 0.97 h | AUCINF [2, 16]: 8910.06 ± 3388.83 µg·h/L | AUClast [2, 16]: 8843.82 ± 3366.35 µg·h/L | Cl [2, 16]: 29.59 ± 9.55 L/h | Cmax [2, 16]: 1878.22 ± 681.05 µg/L | Tmax [2, 16]: 3.25 ± 0.20 h | Vz [2, 16]: 374.58 ± 119.99 L | t1/2 [2, 16]: 8.81 ± 0.46 h | AUCINF [2, 17]: 10549.78 ± 3061.74 µg·h/L | AUClast [2, 17]: 10466.78 ± 3028.35 µg·h/L | Cl [2, 17]: 30.84 ± 11.23 L/h | Cmax [2, 17]: 2139.28 ± 589.06 µg/L | Tmax [2, 17]: 3.19 ± 0.13 h | Vz [2, 17]: 345.29 ± 120.76 L | t1/2 [2, 17]: 7.85 ± 1.92 h | Cumulative urinary drug recovery (normalized to pyragrel) within 24 h ([3]; single dose of pyragrel 60 mg): 3.90 ± 2.11% | Cumulative urinary drug recovery (normalized to pyragrel) within 24 h ([3]; single dose of pyragrel 120 mg): 1.93 ± 0.85% | Cumulative urinary drug recovery (normalized to pyragrel) within 24 h ([3]; single dose of pyragrel 240 mg): 2.75 ± 0.97%
